Consider 22 compounds from US20230024302A1, “2,3,5-TRISUBSTITUTED PYRAZOLO[1,5-A]PYRIMIDINE COMPOUNDS” (Arcus Biosciences, Inc., priority 2019, published 2023).

Like-named read-outs stand apart in the source and are kept apart here. Some results are limits rather than exact numbers.

What is called IC50 is the concentration that gives 50% inhibition.

Assay [1] has as its target T1, PI3Kγ (p120γ) (Homo sapiens, UniProt P48736).
T1 construct: purchased Promega V1761
Nature of the assay: Inhibition of PI3K kinase activity (ADP Glo), PI3Kγ. The note with it: read-out: biochemical potency (PI3Kγ IC50). The method, boiled down:
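IC50 values come from a 4-parameter nonlinear fit of ADP-Glo luminescence, which measures ADP produced as PIP2 is phosphorylated to PIP3. The p120γ enzyme (2× stock 8 nM) sat with compound 1 h at rt before substrate (2× stocks: 50 μM ATP, 0.1 mg/ml PIP2) was added. Phosphorylation then proceeded 60 min at rt.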
On the technique in general: ADP-Glo turns the ADP formed in a reaction into a luminescent signal.

Assay [2] has as its target T2, PI3Kγ (Homo sapiens, UniProt P48736).
T2 construct: host or cells: THP-1
Nature of the assay: PI3Kγ cellular assay in THP-1 cells (AKT pS473 AlphaLISA). The assay is classed as cell-based. Put shortly:
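Endogenous AKT S473 phosphorylation, detected by AlphaLISA in lysates, serves as the PI3Kγ activity read-out in stimulated, serum-starved THP-1 cells (1.8×10^5/well).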

[3] abbreviates: Table 1, rhMCP-1 stimulated AKT pS473, read-out: cellular potency (PI3Kγ IC50).
Setting [4] is: Table 2, rhMCP-1 stimulated AKT pS473, read-out: cellular potency (PI3Kγ IC50).
Where [5] appears, read: AKT pS473, read-out: cellular potency (PI3Kγ IC50).
[6] abbreviates: Table 3, rhMCP-1 stimulated AKT pS473, read-out: cellular potency (PI3Kγ IC50).

T1 sequence (P48736 whole entry): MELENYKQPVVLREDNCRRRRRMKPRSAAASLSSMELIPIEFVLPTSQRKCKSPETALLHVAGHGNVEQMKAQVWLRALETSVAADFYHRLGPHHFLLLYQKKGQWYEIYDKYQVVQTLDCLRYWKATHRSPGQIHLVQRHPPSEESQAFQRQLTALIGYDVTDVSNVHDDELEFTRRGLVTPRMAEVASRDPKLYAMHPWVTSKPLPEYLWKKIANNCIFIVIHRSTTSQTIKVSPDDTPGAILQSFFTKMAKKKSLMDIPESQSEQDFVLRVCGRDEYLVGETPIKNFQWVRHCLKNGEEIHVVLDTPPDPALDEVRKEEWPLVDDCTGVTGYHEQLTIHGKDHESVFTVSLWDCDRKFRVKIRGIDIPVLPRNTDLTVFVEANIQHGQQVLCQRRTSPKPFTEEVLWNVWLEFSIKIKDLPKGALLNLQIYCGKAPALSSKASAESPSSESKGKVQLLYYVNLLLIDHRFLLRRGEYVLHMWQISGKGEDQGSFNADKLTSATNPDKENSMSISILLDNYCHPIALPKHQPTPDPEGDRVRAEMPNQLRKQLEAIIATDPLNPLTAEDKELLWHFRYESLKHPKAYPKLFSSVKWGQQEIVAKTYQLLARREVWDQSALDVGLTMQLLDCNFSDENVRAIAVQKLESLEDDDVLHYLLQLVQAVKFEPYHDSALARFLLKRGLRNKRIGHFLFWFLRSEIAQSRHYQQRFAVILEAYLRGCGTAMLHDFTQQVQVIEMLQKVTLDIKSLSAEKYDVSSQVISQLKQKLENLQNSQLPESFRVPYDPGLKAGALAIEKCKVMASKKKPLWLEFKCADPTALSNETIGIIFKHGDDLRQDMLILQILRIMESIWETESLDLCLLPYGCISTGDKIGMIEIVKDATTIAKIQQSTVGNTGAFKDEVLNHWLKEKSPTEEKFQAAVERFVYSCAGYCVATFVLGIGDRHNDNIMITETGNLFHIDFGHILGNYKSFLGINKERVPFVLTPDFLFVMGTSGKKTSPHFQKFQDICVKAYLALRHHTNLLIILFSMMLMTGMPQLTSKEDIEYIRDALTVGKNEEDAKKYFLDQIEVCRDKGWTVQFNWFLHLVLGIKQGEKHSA
T2 sequence (P48736 whole entry): as above

`C[C@@H](C1CC1)N1Cc2cc(-c3ccn4nc(N)c(C(=O)N[C@H]5CNC(=O)C5)c4n3)cc(O[C@@H]3CCOC3)c2C1=O` [Example 145, 2-Amino-5-{2-[(1S)-1-cyclopropylethyl]-1-oxo-7-[(3R)-oxolan-3-yloxy]-2,3-dihydro-1H-isoindol-5-yl}-N-[(3R)-5-oxopyrrolidin-3-yl]pyrazolo[1,5-a]pyrimidine-3-carboxamide]: the IC50 is less than 100 nM in assay [1] (Table 1, p120γ) and less than 100 nM in assay [2] (setting [3]).
With `Cc1cc(NC(=O)c2c(N)nn3ccc(-c4cc5c(c(NS(C)(=O)=O)c4)C(=O)N([C@@H](C)C4CC4)C5)nc23)cc(C)n1` [Example 102, (S)-2-Amino-5-(2-(1-cyclopropylethyl)-7-(methylsulfonamido)-1-oxoisoindolin-5-yl)-N-(2,6-dimethylpyridin-4-yl)pyrazolo[1,5-a]pyrimidine-3-carboxamide], the IC50 was less than 100 nM in assay [1] (Table 1, p120γ) and less than 100 nM in assay [2] (setting [3]).
As for `Cc1cc(-c2ccn3nc(N)c(C(=O)N[C@H]4C[C@H](N)C4)c3n2)cc2c1C(=O)N([C@@H](C)C1CC1)C2` [Example 185], the IC50 in assay [1] (Table 2, p120γ) was less than 100 nM; in assay [2] (setting [4]) it was 100 to 1000 nM.
Regarding `C[C@@H](C1CC1)N1Cc2cc(-c3ccn4nc(N)c(C(=O)N[C@@H]5CCC(=O)NC5)c4n3)cc(OC(F)(F)F)c2C1=O` [Example 412], the IC50 was less than 100 nM in assay [1] (Table 6, p120γ) and 100 to 1000 nM in assay [2] (Table 6, rhMCP-1 stimulated AKT pS473, read-out: cellular potency (PI3Kγ IC50)).
For `Cc1cc(-c2ccn3nc(N)c(C(=O)Nc4cnn(C)c4)c3n2)cc2c1C(=O)N([C@@H](C)C1CC1)C2` [Example 18, 2-Amino-5-{2-[(1S)-1-cyclopropylethyl]-7-methyl-1-oxo-2,3-dihydro-1H-isoindol-5-yl}-N-(1-methyl-1H-pyrazol-4-yl)pyrazolo[1,5-a]pyrimidine-3-carboxamide], the IC50 in assay [1] (Table 1, p120γ) is less than 100 nM; in assay [2] (setting [3]), less than 100 nM.
Consider `CC[C@H](C)N1Cc2cc(-c3ccn4nc(N)c(C(=O)NC5CC5)c4n3)cc(C)c2C1=O` [Example 302], for which the IC50 was less than 100 nM in assay [1] (Table 2, p120γ) and 100 to 1000 nM in assay [2] (setting [4]).
For `COC[C@@H](C)NC(=O)c1c(N)nn2ccc(-c3cc4c(c(NS(C)(=O)=O)c3)C(=O)N([C@@H](C)C3CC3)C4)nc12` [Example 385], the IC50 in assay [1] was less than 100 nM; in assay [2] (setting [5]), 100 to 1000 nM.
With `C[C@@H](C1CC1)N1Cc2cc(-c3ccn4nc(N)c(C(=O)NC5CC5)c4n3)cc(OCC(F)(F)F)c2C1=O` [Example 155, 2-Amino-N-cyclopropyl-5-{2-[(1S)-1-cyclopropylethyl]-1-oxo-7-(2,2,2-trifluoroethoxy)-2,3-dihydro-1H-isoindol-5-yl}pyrazolo[1,5-a]pyrimidine-3-carboxamide], the IC50 in assay [1] (Table 1, p120γ) was less than 100 nM; in assay [2] (setting [3]), less than 100 nM.
For `C[C@H](N1Cc2cc(-c3ccn4nc(N)c(C(=O)Nc5ccccc5)c4n3)cc(NS(C)(=O)=O)c2C1=O)C(F)(F)F` [Example 403], the IC50 was less than 100 nM in assay [1] and 100 to 1000 nM in assay [2] (setting [5]).
As to `C[C@@H](C1CC1)N1Cc2cc(-c3ccn4nc(N)c(C(=O)Nc5ncn(C)n5)c4n3)cc(NS(C)(=O)=O)c2C1=O` [Example 109, 2-Amino-5-{2-[(1S)-1-cyclopropylethyl]-7-methanesulfonamido-1-oxo-2,3-dihydro-1H-isoindol-5-yl}-N-(1-methyl-1H-1,2,4-triazol-3-yl)pyrazolo[1,5-a]pyrimidine-3-carboxamide], the IC50 in assay [1] (Table 1, p120γ) was less than 100 nM; in assay [2] (setting [3]) it was 100 to 1000 nM.
For `C[C@@H](C1CC1)N1Cc2cc(-c3ccn4nc(N)c(C(=O)N[C@H]5CCC[C@@H](O)C5)c4n3)cc(C(F)(F)F)c2C1=O` [Example 63, 2-Amino-5-{2-[(1S)-1-cyclopropylethyl]-1-oxo-7-(trifluoromethyl)-2,3-dihydro-1H-isoindol-5-yl}-N-[(1S,3R)-3-hydroxycyclohexyl]pyrazolo[1,5-a]pyrimidine-3-carboxamide] the same measures were less than 100 nM and less than 100 nM.
As for `C[C@@H](C1CC1)N1Cc2cc(-c3ccn4nc(N)c(C(=O)NC5CC5)c4n3)cc(F)c2C1=O` [Example 370], the IC50 was less than 100 nM in assay [1] and 100 to 1000 nM in assay [2] (setting [5]).
In the case of `Cc1cc(-c2ccn3nc(N)c(C(=O)N[C@H]4CCCC[C@@H]4O)c3n2)cc2c1C(=O)N([C@@H](C)C1CC1)C2` [Example 254], the IC50 is less than 100 nM in assay [1] (Table 2, p120γ) and 100 to 1000 nM in assay [2] (setting [4]).
In the same order, the values of `CC[C@@H](CO)N1Cc2cc(-c3ccn4nc(N)c(C(=O)NC5CC5)c4n3)cc(C)c2C1=O` [Example 309] are less than 100 nM and 100 to 1000 nM.
On to `C[C@H](O)CCNC(=O)c1c(N)nn2ccc(-c3cc4c(c(C(F)(F)F)c3)C(=O)N([C@@H](C)C3CC3)C4)nc12` [Example 346], for which the IC50 in assay [1] (Table 3, p120γ) was less than 100 nM; in assay [2] (setting [6]), 100 to 1000 nM.
For `Cc1cc(-c2ccn3nc(N)c(C(=O)NC4(C(C)O)CC4)c3n2)cc2c1C(=O)N([C@@H](C)C1CC1)C2` (some centres unmarked) [Example 253], the IC50 in assay [1] (Table 2, p120γ) was less than 100 nM; in assay [2] (setting [4]), 100 to 1000 nM.
With `C[C@@H](NC(=O)c1c(N)nn2ccc(-c3cc4c(c(NS(C)(=O)=O)c3)C(=O)N([C@@H](C)C3CC3)C4)nc12)c1cnn(C)c1` [Example 98, 2-Amino-5-{2-[(1S)-1-cyclopropylethyl]-7-methanesulfonamido-1-oxo-2,3-dihydro-1H-isoindol-5-yl}-N-[(1R)-1-(1-methyl-1H-pyrazol-4-yl)ethyl]pyrazolo[1,5-a]pyrimidine-3-carboxamide], the IC50 was less than 100 nM in assay [1] (Table 1, p120γ) and less than 100 nM in assay [2] (setting [3]).
`C[C@@H](C1CC1)N1Cc2cc(-c3ccn4nc(N)c(C(=O)NC5CC5)c4n3)cc(S(=O)(=O)N(C)C)c2C1=O` [Example 144, 2-Amino-N-cyclopropyl-5-{2-[(1S)-1-cyclopropylethyl]-7-(dimethylsulfamoyl)-1-oxo-2,3-dihydro-1H-isoindol-5-yl}pyrazolo[1,5-a]pyrimidine-3-carboxamide]: the IC50 in assay [1] (Table 1, p120γ) was less than 100 nM; in assay [2] (setting [3]), less than 100 nM.
As for `CCS(=O)(=O)Nc1cc(-c2ccn3nc(N)c(C(=O)NC4CC4)c3n2)cc2c1C(=O)N([C@@H](C)C1CC1)C2` [Example 110, 2-Amino-N-cyclopropyl-5-{2-[(1S)-1-cyclopropylethyl]-7-ethanesulfonamido-1-oxo-2,3-dihydro-1H-isoindol-5-yl}pyrazolo[1,5-a]pyrimidine-3-carboxamide], the IC50 is less than 100 nM in assay [1] (Table 1, p120γ) and less than 100 nM in assay [2] (setting [3]).
Take `C[C@@H](C1CC1)N1Cc2cc(-c3ccn4nc(N)c(C(=O)NC5CC5)c4n3)cc(Cl)c2C1=O` [Example 162, 2-Amino-5-{7-chloro-2-[(1S)-1-cyclopropylethyl]-1-oxo-2,3-dihydro-1H-isoindol-5-yl}-N-cyclopropylpyrazolo[1,5-a]pyrimidine-3-carboxamide]: the IC50 in assay [1] (Table 1, p120γ) is less than 100 nM; in assay [2] (setting [3]) it was less than 100 nM.
With `CC(=O)N1CC(NC(=O)c2c(N)nn3ccc(-c4cc5c(c(C(F)(F)F)c4)C(=O)N([C@@H](C)C4CC4)C5)nc23)C1` [Example 334], the IC50 is less than 100 nM in assay [1] (Table 3, p120γ) and 100 to 1000 nM in assay [2] (setting [6]).
Consider `C[C@@H](C1CC1)N1Cc2cc(-c3ccn4nc(N)c(C(=O)N[C@H]5C[C@](C)(O)C5)c4n3)cc(NS(C)(=O)=O)c2C1=O` [Example 82, 2-Amino-5-{2-[(1S)-1-cyclopropylethyl]-7-methanesulfonamido-1-oxo-2,3-dihydro-1H-isoindol-5-yl}-N-[trans-3-hydroxy-3-methylcyclobutyl]pyrazolo[1,5-a]pyrimidine-3-carboxamide], for which the IC50 in assay [1] (Table 1, p120γ) is less than 100 nM; in assay [2] (setting [3]) it was less than 100 nM.
